molecular target: T1, human GPR39 receptor (Homo sapiens, UniProt O43194); assay: Measurement of intracellular calcium response in PC3 cells (FLIPR), antagonism of the C3 agonist response; type: cell-based; conditions: functional pKi (modified Cheng-Prusoff), inhibition of the C3 (TC-G 1008) response at EC90, 30 μM ZnCl2
T1 construct: PC3 Cells, Expressing the Endogenous Human GPR39 Receptor; endogenous in cells; host or cells: PC3 (human prostate adenocarcinoma) cells
T1 sequence (O43194 1-453): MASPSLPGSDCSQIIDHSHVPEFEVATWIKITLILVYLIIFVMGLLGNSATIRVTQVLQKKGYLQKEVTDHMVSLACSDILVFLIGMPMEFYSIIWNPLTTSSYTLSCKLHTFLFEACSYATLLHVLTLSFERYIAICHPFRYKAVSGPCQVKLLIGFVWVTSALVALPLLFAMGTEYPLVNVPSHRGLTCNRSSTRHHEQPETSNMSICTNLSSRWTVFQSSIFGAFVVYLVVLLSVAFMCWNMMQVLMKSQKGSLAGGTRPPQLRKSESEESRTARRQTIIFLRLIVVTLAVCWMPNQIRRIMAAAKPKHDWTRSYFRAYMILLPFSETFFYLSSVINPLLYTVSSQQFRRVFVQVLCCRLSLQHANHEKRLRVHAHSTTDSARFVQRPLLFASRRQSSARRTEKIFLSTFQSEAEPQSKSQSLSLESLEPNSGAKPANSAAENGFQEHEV
Procedure: Human prostate adenocarcinoma (PC3) cells endogenously expressing human GPR39 receptor were seeded into black walls clear-base 384-well plates at a density of 7,500 cells per well in DM EM (Low Glucose) supplemented with 10% heat-inactivated foetal bovine serum and 1% of Pen/Strep and grown overnight at 37° C., 5% CO2. After washing with assay buffer (20 mM HEPES, 137 mM NaCI, 5.4 mM KCI, 10 mM glucose, 0.8 mM MgSO4, 1.3 mM CaCl2, 0.3 mM Na2HPO4, 0.4 mM KH2PO4 4.2 mM NaHCO3, pH 7.4), cells were incubated with Calcium-6 probe (Molecular Devices) at 37° C. for 2h and then equilibrated at RT for 30 minutes on metal block. The fluorescence was measured in real time by Fluorometric Imaging Plate Reader (FLIPR TETRA, Molecular Devices) (excitation wavelength at 470-495 nm, emission wavelength at 515-575 nm).
Compounds of invention were serially diluted in neat DMSO at 1000 fold concentrations and plated into 384-well plates and then 200-fold diluted in assay buffer containing 150 uM ZnCl2 (30 μM final concentration) and […].
Fluorescence was monitored throughout the run assay. The peak of Ca2+stimulation (baseline subtracted) was expressed as percentage of the maximal inhibition of the EC90 C3 response and was plotted versus the concentration of test compound. Curve fitting and IC50 estimations are carried out using a four-parameter logistic model using XLfit Software.
The potency of compounds was reported as functional pKi (—Log10Ki) obtained using the modified Cheng-Prusoff relationship (Cheng, Y., Prusoff, W. H. 1973.)
fKi =IC50/(1+[L]/EC50) where IC50 is the concentration of antagonist required for 50% inhibition of the maximum response, [L] is the concentration of the agonist used (EC90) and EC50 is the concentration of agonist need to induced 50% of the maximum response (obtained in each experimental plate).
An fpKi less than 5.2 is reported as “+/±”. An fpKi ranging from 5.2 to 5.9 is reported as “+”. An fpKi from 6.0 to 6.5 is reported as “++”. An fpKi from 6.6 to 7.2 is reported as “+++”. An fpKi equal to or greater than 7.3 is reported as “++++”.

Molecule	fpKi activity
(2R or 2S) N-[6-(3,3-difluoropyrrolidin-1-yl)-5-(4-methyl-2-phenylpiperazine-1-carbonyl)pyridin-2-yl]cyclopropanecarboxamide [Example 148b]	+ (An fpKi ranging from 5.2 to 5.9 is reported as “+”)

same assay, conditions: functional pKi (modified Cheng-Prusoff), inhibition of the C3 (TC-G 1008) response at EC90, 30 μM ZnCl2, read-out: fpKi activity

Ki [nM]	Molecule
316 to 1000	COc1cccc(CN2CCN(C(=O)c3ccc(NC(=O)C4CC4)cc3N3CCCCCC3)CC2)c1 [Example 25, N-(3-(azepan-1-yl)-4-(4-(3-methoxybenzyl)piperazine-1-carbonyl)phenyl) Cyclopropanecarboxamide]
63.1 to 251	CCCN1CCN(C(=O)c2ccc(NC(=O)C3CC3)cc2N2C[C@@H](C)C[C@H](C)C2)CC1 (relative stereo) [Example 14b]
63.1 to 251	O=C(Nc1ccc(C(=O)N2CCOCC2c2ccccc2)c(N2CCCC2)c1)C1CC1 (racemic) [Example 167, N-[4-(3-phenylmorpholine-4-carbonyl)-3-pyrrolidin-1-ylphenyl]cyclopropanecarboxamide]
316 to 1000	CCCN1CCN(C(=O)c2ccc(NC(=O)C(C)C)cc2N2CCCCCC2)CC1 [Example 93, N-(3-(azepan-1-yl)-4-(4-propylpiperazine-1-carbonyl)phenyl)isobutyramide]
≤ 50.1	CCCN1CCN(C(=O)c2ccc(NC(=O)C3CC3)cc2N2CC[C@@H](C(C)C)C2)CC1 [Example 2, (S)-N-(3-(3-isopropylpyrrolidin-1-yl)-4-(4-propylpiperazine-1-carbonyl)phenyl)cyclopropanecarboxamide]
63.1 to 251	CN1CCN(C(=O)c2ccc(NC(=O)C3CC3)cc2N2CCCCCC2)C(c2ccsc2)C1 (racemic) [Example 70c, N-(3-(azepan-1-yl)-4-(4-methyl-2-(thiophen-3-yl)piperazine-1-carbonyl)phenyl)cyclopropane carboxamide]
63.1 to 251	CN1CCN(C(=O)c2ccc(NC(=O)C3CC3)cc2N2CC3(CCOC3)C2)C(c2ccccc2)C1 (stereo not shown) [Example 205, N-[4-(4-methyl-2-phenylpiperazine-1-carbonyl)-3-(6-oxa-2-azaspiro[3.4]octan-2-yl)phenyl]cyclopropanecarboxamide]
63.1 to 251	CN1CCN(C(=O)c2ccc(-c3nnc(C4CC4)[nH]3)cc2N2CCCC2)C(c2ccccc2)C1 (single isomer, unassigned) [Example 151a, (2R or 2S) [4-(5-cyclopropyl-4H-1,2,4-triazol-3-yl)-2-pyrrolidin-1-ylphenyl]-(4-methyl-2-phenylpiperazin-1-yl)methanone]
316 to 1000	CCCN1CCN(C(=O)c2ccc(NC(=O)C3CC3)cc2N2CCC(c3ccccc3)C2)CC1 (stereo not shown) [Example 5, N-(3-(3-phenylpyrrolidin-1-yl)-4-(4-propylpiperazine-1-carbonyl)phenyl) cyclopropanecarboxamide]
63.1 to 251	O=C(Nc1ccc(C(=O)N2CCS(=O)(=O)CC2)c(N2CCCC(C(F)(F)F)C2)c1)C1CC1 (single isomer, unassigned) [Example 185a, N-[4-(1,1-dioxo-1,4-thiazinane-4-carbonyl)-3-[3R or 3S-(trifluoromethyl)piperidin-1-yl]phenyl]cyclopropanecarboxamide]
≤ 50.1	CN1CCN(C(=O)c2ccc(NC(=O)C3CC3)cc2N2CCCCCC2)C(c2cccs2)C1 (racemic) [Example 69c, N-(3-(azepan-1-yl)-4-(4-methyl-2-(thiophen-2-yl)piperazine-1-carbonyl)phenyl) cyclopropane carboxamide]
63.1 to 251	CCCN1CCN(C(=O)c2ccc(NC(=O)C3CC3)cc2N2CCC(C)C2)CC1 (single isomer, unassigned) [Example 13a, N-(3-[(3R or 3S] 3-methylpyrrolidin-1-yl]-4-(4-propylpiperazine-1-carbonyl)phenyl) cyclopropanecarboxamide]
1260 to 6310	CCCN1CCN(C(=O)c2ccc(NC(C)=O)cc2N2CCCCCC2)CC1 [Example 95, N-(3-(azepan-1-yl)-4-(4-propylpiperazine-1-carbonyl)phenyl)acetamide]
1260 to 6310	O=C(Nc1ccc(C(=O)N2CCS(=O)(=O)CC2)c(N2CCC(F)(F)CC2)c1)C1CC1 [Example 196, N-[3-(4,4-difluoropiperidin-1-yl)-4-(1,1-dioxo-1,4-thiazinane-4-carbonyl)phenyl]cyclopropanecarboxamide]
1260 to 6310	Cc1nnc(-c2ccc(C(=O)N3CCN(C)CC3c3ccccc3)c(N3CCCC3)c2)o1 (racemic) [Example 123, [4-(5-methyl-1,3,4-oxadiazol-2-yl)-2-pyrrolidin-1-ylphenyl]-(4-methyl-2-phenylpiperazin-1-yl)methanone]
63.1 to 251	CN1CCN(C(=O)c2ccc(NC(=O)C3CC3)nc2N2CCCC2)C(c2ccccc2)C1 (single isomer, unassigned) [Example 149a, (2R or 2S) N-[5-(4-methyl-2-phenylpiperazine-1-carbonyl)-6-pyrrolidin-1-ylpyridin-2-yl] cyclopropanecarboxamide]
63.1 to 251	CCCN1CCn2c(cnc2-c2ccc(NC(=O)C3CC3)cc2N2CCCCCC2)C1 [Example 105, N-[3-(azepan-1-yl)-4-(7-propyl-6,8-dihydro-5H-imidazo[1,5-a]pyrazin-3-yl)phenyl]cyclopropanecarboxamide]
316 to 1000	CCCN1CCN(C(=O)c2ccc(NC(=O)C3CC3)cc2N2CCCCC2)CC1 [Example 19, N-(3-(piperidin-1-yl)-4-(4-propylpiperazine-1-carbonyl)phenyl)cyclopropanecarboxamide]
1260 to 6310	O=C(Nc1ccc(C(=O)N2CCNCC2c2ccccc2F)c(N2CCCC2)c1)C1CC1 (racemic) [Example 157]
≤ 50.1	Cc1nnc(-c2ccc(C(=O)N3CCC4(CC3)CC4)c(-n3ccc(C(F)(F)F)n3)c2)[nH]1 [Example 214, 6-azaspiro[2.5]octan-6-yl-[4-(5-methyl-4H-1,2,4-triazol-3-yl)-2-[3-(trifluoromethyl)pyrazol-1-yl]phenyl]methanone]
1260 to 6310	CCCN1CCN(C(=O)c2ccc(Nc3nnc(C4CC4)[nH]3)cc2N2CCCCCC2)CC1 [Example 98]
63.1 to 251	CN1CCN(C(=O)c2ccc(NC(=O)C3CC3)cc2N2CCC3(COC3)C2)C(c2cccc(Cl)c2)C1 (stereo not shown) [Example 212, N-[4-[2-(3-chlorophenyl)-4-methylpiperazine-1-carbonyl]-3-(2-oxa-7-azaspiro[3.4]octan-7-yl)phenyl]cyclopropanecarboxamide]
316 to 1000	CCCN1CCN(C(=O)c2ccc(NC(=O)C3CC3)cc2N2CCCOCC2)CC1 [Example 3, N-[3-(1,4-oxazepan-4-yl)-4-(4-propylpiperazine-1-carbonyl)phenyl]cyclopropanecarboxamide]
316 to 1000	CN1CCN(C(=O)c2ccc(NC(=O)C3CC3)cc2N2CCCC2)C(c2cncnc2)C1 (racemic) [Example 175, N-[4-(4-methyl-2-pyrimidin-5-ylpiperazine-1-carbonyl)-3-pyrrolidinylphenyl]cyclopropanecarboxamide]
316 to 1000	CN1CCN(C(=O)c2ccc(NC(=O)C3CC3)cc2N2CCC3(CCC3)C2)C(c2ccccc2)C1 (single isomer, unassigned) [Example 66b, N-[3-(6-azaspiro[3.4]octan-6-yl)-4-(4-methyl-2-phenylpiperazine-1-carbonyl)phenyl]cyclopropanecarboxamide]
63.1 to 251	O=C(Nc1ccc(C(=O)N2CCC3(CC2)COC3)c(N2CCCC2)c1)C1CC1 [Example 219, N-[4-(2-oxa-7-azaspiro[3.5]nonane-7-carbonyl)-3-pyrrolidin-1-ylphenyl]cyclopropanecarboxamide]
316 to 1000	CCOC1CCN(C(=O)c2ccc(NC(=O)C3CC3)cc2N2CCCCCC2)CC1 [Example 48, N-(3-(azepan-1-yl)-4-(4-ethoxypiperidine-1-carbonyl)phenyl)cyclopropanecarboxamide]

— patent US20230174484A1, “ANTAGONISTS OF GPR39 PROTEIN” (Oregon Health & Science University, priority 2020, published 2023)
